Data taken from US20240425464A1, “Substituted Monohydrazides as Potent Antifungal Agents” (University of Kentucky Research Foundation, priority 2023, published 2024).
Values after ≈ are worked out from the molar mass of the structure shown. Where two headings read alike, the source gives them in different places.

Tested on: C. auris strain AR Bank #390 (L)
Assay: MIC determination by in vitro antifungal assay
Type: cell-based, Candida auris
Settings: strain L = C. auris AR Bank # 0390 (Tables 1A/1B)
Protocol: The antifungal agent amphotericin B (AmB) was purchased from VWR (Radnor PA, USA). AmB was dissolved in DMSO at a final concentration of 5 mg/mL and was stored at −20° C., protected from light. Candida albicans American Type Culture Collection (ATCC) 10231 (strain A), C. albicans ATCC 64124 (B), and C. albicans ATCC MYA-2876 (C) were obtained from Utah State University. C. albicans ATCC 90819 (D), C. albicans ATCC MYA-2310 (E), C. albicans ATCC MYA-1237 (F), C. albicans ATCC MYA-1003 (G), Candida glabrata ATCC 2001 (H), Candida krusei ATCC 6258 (I), Candida parapsilosis ATCC 22019 (J), Cryptococcus neoformans ATCC MYA-895 (M), Aspergillus terreus ATCC MYA-3633 (N), and Aspergillus flavus ATCC MYA-3631 (0) were obtained from the American Type Culture Collection (ATCC; Manassas, VA, USA). Aspergillus nidulans ATCC 38163 (P) was obtained from University of Kentucky. Clinically derived Aspergillus fumigatus NRRL 163 (Q), A. fumigatus NRRL 5109 (R), and A. fumigatus NRRL 6113 (S) were obtained from Northern Regional Research Laboratory (NRRL). Candida auris 384 (K), C. auris 390 (L), and fungal strains 381-400 (including 10 C. auris (AR Bank #381-390), 3 Candida duobushaemulonii (AR Bank #391, AR Bank #392, and AR Bank #394), 2 Candida haemulonii (AR Bank #393 and AR Bank #395), 1 Kodameae ohmeri (AR Bank #396), 1 C. krusei (AR Bank #397), 1 Candida lusitaniae (AR Bank #398), and 2 Saccharomyces cerevisiae strains (AR Bank #399 and AR Bank #400)) were part of a larger fungal library from the AR Bank maintained by the Centers for Disease Control and Prevention (CDC; Atlanta, GA, USA). Filamentous fungi and yeasts were cultivated at 35° C. in RPMI 1640 medium (with L-glutamine, without sodium bicarbonate, Sigma-Aldrich, St. Louis, MO) buffered to a pH of 7.0 with 0.165 M morpholinepropanesulfonic acid (MOPS) buffer (Sigma-Aldrich). For cytotoxicity assays, HepG2 and the mouse macrophage cell line J774A.1 were obtained from University of Kentucky. The human embryonic kidney cell line, HEK-293, was bought from the ATCC. Mammalian cells were grown in Dulbecco's Modified Eagle's Medium (DMEM) (from VWR) with 10% fetal bovine serum (FBS) (from VWR) and 1% Pen/Strep (from ATCC). Cell lines were cultured at 37° C. with 5% CO2 and passaged by trypsinization with 0.05% trypsin: 0.53 mM EDTA (from Sigma-Aldrich).
From the actively growing yeast culture, 100 µL were then transferred to 900 μL of RPMI 1640 medium and re-adjusted to achieve OD600 of 0.12 (˜1×10^6 CFU/mL). The cell suspension was further diluted to achieve 1:100 in RPMI 1640 medium.
Finally, the activity of these monohydrazides was explored against […] non-Candida strains: Cryptococcus neoformans ATCC MYA-895 (M), Aspergillus terreus ATCC MYA-3633 (N), Aspergillus flavus ATCC MYA-3631 (O), Aspergillus nidulans ATCC 38163 (P), Aspergillus fumigatus NRRL 163 (Q), A. fumigatus NRRL 5109 (R), and A. fumigatus NRRL 6113 (S) (Tables 1A and 1B). The double dilution method was used with concentrations ranging from 0.06 to 31.3 j·tg mL^−1 for monohydrazides 1a-9j, and the commercially available positive antifungal control amphotericin B (AmB).

[1] = Candidozyma auris, read-out: MIC

Row | Compound | MIC [1] | MIC
1 | COc1cccc(NNC(=O)c2ncc(F)cc2F)c1 [Compound 7c] | 15.6 µg/mL (≈ 55.9 µM) | 
2 | O=C(NNc1ccc(F)cc1)c1ccc(F)cc1F [Compound 1d] | 1.95 µg/mL (≈ 7.32 µM) | 
3 | O=C(NNc1cc(Cl)cc(Cl)c1)c1cnccn1 [Compound 9j] | 7.8 µg/mL (≈ 27.6 µM) | 
4 | O=C(NNc1cccc(F)c1)c1ccc(Br)cn1 [Compound 4a] |  | 1.95 μg/mL^−1
5 | O=C(NNc1cccc(F)c1)c1cccc(F)n1 [Compound 5a] |  | 3.9 μg/mL^−1
6 | O=C(NNc1ccc(F)cc1)c1cnccn1 [Compound 9d] | 0.98 µg/mL (≈ 4.22 µM) | 
7 | O=C(NNc1cccc(F)c1)c1cnccn1 [Compound 9a] |  | 0.98 μg/mL^−1
8 | COc1ccc(NNC(=O)c2ccc(F)cc2F)cc1 [Compound 1f] | 1.95 µg/mL (≈ 7.01 µM) | 
9 | O=C(NNc1cc(F)ccc1F)c1ccc(F)cc1F [Compound 1h] | 15.6 µg/mL (≈ 54.9 µM) | 
10 | O=C(NNc1cc(F)cc(F)c1)c1ccc(F)cc1F [Compound 1i] | 15.6 µg/mL (≈ 54.9 µM) | 
11 | O=C(NNc1cc(F)cc(F)c1)c1cnccn1 [Compound 9i] | 1.95 µg/mL (≈ 7.79 µM) | 
12 | COc1cccc(NNC(=O)c2nc(F)ccc2F)c1 [Compound 8c] | 15.6 µg/mL (≈ 55.9 µM) | 
13 | O=C(NNc1ccc(F)cc1F)c1ccc(Br)cn1 [Compound 4g] | 31.3 µg/mL (≈ 95.4 µM) | 
14 | O=C(NNc1cccc(F)c1)c1ncc(F)cc1F [Compound 7a] |  | 1.95 μg/mL^−1
15 | O=C(NNc1ccc(Cl)cc1)c1ccc(F)cc1F [Compound 1e] |  | >31.3 μg/mL^−1
16 | O=C(NNc1cccc(F)c1)c1ccc(F)cc1F [Compound 1a] |  | 0.24 μg/mL^−1
17 | COc1ccc(NNC(=O)c2ccc(Br)cn2)cc1 [Compound 4f] | 1.95 µg/mL (≈ 6.05 µM) | 
18 | COc1ccc(NNC(=O)c2cccc(F)n2)cc1 [Compound 5f] | 1.95 µg/mL (≈ 7.46 µM) | 
